Assay results: paper PMC8394243 (Biomolecules, 2021)
Ends that are not written are not given here.

What was measured:
[1] = SDS-PAGE; for Effect of pefabloc (serine protease inhibitor) on degradation in CF sputum, 4 h / Effect of pefabloc (serine protease inhibitor) on degradation in CF sputum, 24 h: 1 mM pefabloc pre-incubated 30 min with sputum (100-fold in TBS)
Experimental: Sputum from Pseudomonas-infected CF patients was obtained anonymously from the adult CF Centre at Belfast City Hospital. Sputum samples were in excess to requirements for diagnostic purposes. Permission to use sputum samples, which would have been disposed of, for validation purposes was given by the Director of R&D, Belfast Health and Social Care Trust. Sputum was frozen immediately at −80 °C and used the next day after thawing at room temperature.
Samples were transferred to a fresh Eppendorf at regular time-points (0, 1, 2, 3, 4, 18 and 24, as appropriate) and boiled on a heat block at 95 °C for ten minutes to terminate the reaction. […] CF sputum (diluted 100-fold in 1X TBS) was incubated with 0.1 mM E64, 5 mM EDTA or 1 mM pefabloc for 30 min prior to addition of peptides. Following the addition of peptide, the samples were incubated for four or 24 h at 37 °C. An aliquot was taken at 0, 4 or 24 h and boiled for ten minutes at 95 °C to terminate the reaction. Samples were stored at 4 °C until analysed by SDS-PAGE.
Peptide samples were separated by sodium dodecyl sulphate-polyacrylamide gel electrophoresis (SDS-PAGE) under denaturing and reducing conditions using 4–12% Invitrogen NuPAGE Novex Bis-Tris precast gels (Thermo Fisher Scientific, Loughborough, UK) and the Invitrogen XCell SureLock Mini-Cell (Thermo Fisher Scientific, Loughborough, UK). An aliquot of 10 μL peptide samples was incubated with 4 μL NuPAGE lithium dodecyl sulphate (LDS) sample buffer (Thermo Fisher Scientific) and 2 μL of 500 nM dithiothreitol (DTT) (Fluorochem, Hadfield, UK) for ten minutes at 95 °C and 15 μL of sample mixture loaded per lane and 5 μL of SeeBlue Plus2 pre-stained protein standard (Thermo Fisher Scientific, Loughborough, UK) loaded in at least one lane. The samples were run using 1X 2-morpholinoethanesulfonic acid (MES)-SDS running buffer (Thermo Fisher Scientific, Loughborough, UK). Electrophoresis was performed under a constant current of 125 mA for 40–60 min. The gel was stained using Biosafe Coomassie Brilliant Blue G-250 stain (Biorad, Watford, UK) for 60 min, washed and destained in water overnight and imaged using a Syngene G:box and GeneSnap software (Syngene, Cambridge, UK).

[2] = target: human sputum leucocyte elastase (neutrophil elastase, NE) (Homo sapiens, UniProt P08246); conditions: 500 nM NE, 37 °C, 0-4 h, hourly samples; peptide 500 μg/mL or parental molar equivalent (160 or 120 μM); SDS-PAGE, Coomassie, visual
Experimental: The method for reaction termination was dependent on subsequent experiments/analysis. For samples intended for investigation of peptide activity using in vitro experiments the reaction was terminated via addition of 1 mM of the serine protease inhibitor pefabloc (Merck, Gillingham, UK), which was added to all groups including the NE alone groups. Samples intended for peptide degradation analysis via SDS-PAGE or mass spectrometry were boiled at 95 °C for ten minutes using a heat block to terminate the reaction.
Peptide samples were separated by sodium dodecyl sulphate-polyacrylamide gel electrophoresis (SDS-PAGE) under denaturing and reducing conditions using 4–12% Invitrogen NuPAGE Novex Bis-Tris precast gels (Thermo Fisher Scientific, Loughborough, UK) and the Invitrogen XCell SureLock Mini-Cell (Thermo Fisher Scientific, Loughborough, UK). An aliquot of 10 μL peptide samples was incubated with 4 μL NuPAGE lithium dodecyl sulphate (LDS) sample buffer (Thermo Fisher Scientific) and 2 μL of […] dithiothreitol (DTT) (Fluorochem, Hadfield, UK) for ten minutes at 95 °C and 15 μL of sample mixture loaded per lane and 5 μL of SeeBlue Plus2 pre-stained protein standard (Thermo Fisher Scientific, Loughborough, UK) loaded in at least one lane. The samples were run using 1X 2-morpholinoethanesulfonic acid (MES)-SDS running buffer (Thermo Fisher Scientific, Loughborough, UK). Electrophoresis was performed under a constant current of 125 mA for 40–60 min. The gel was stained using Biosafe Coomassie Brilliant Blue G-250 stain (Biorad, Watford, UK) for 60 min, washed and destained in water overnight and imaged using a Syngene G:box and GeneSnap software (Syngene, Cambridge, UK).

[3] = tested on: human sputum leucocyte elastase (neutrophil elastase, NE); assay: 500 nM of NE in 1 X TBS; conditions: 37 °C, up to four hours
neutrophil elastase = neutrophil elastase (Homo sapiens, UniProt P08246); conditions: 500 μg/mL peptide, 500 nM NE in 1X TBS, 4 h, 37 °C; MALDI-TOF-MS
Experimental: The method for reaction termination was dependent on subsequent experiments/analysis. […] Samples intended for peptide degradation analysis via SDS-PAGE or mass spectrometry were boiled at 95 °C for ten minutes using a heat block to terminate the reaction.
This service was provided by the University of Dundee (Dundee, UK).

[4] = CF sputum (diluted 100-fold in 1X tris-buffered saline (TBS)); conditions: CF patients, 37 °C, up to four hours
[5] = 5 mM EDTA pre-incubated 30 min with sputum (100-fold in TBS), then peptide 24 h at 37 °C

Chain of human sputum leucocyte elastase (neutrophil elastase, NE) (Homo sapiens, UniProt P08246) (P08246 30-247 limits assumed): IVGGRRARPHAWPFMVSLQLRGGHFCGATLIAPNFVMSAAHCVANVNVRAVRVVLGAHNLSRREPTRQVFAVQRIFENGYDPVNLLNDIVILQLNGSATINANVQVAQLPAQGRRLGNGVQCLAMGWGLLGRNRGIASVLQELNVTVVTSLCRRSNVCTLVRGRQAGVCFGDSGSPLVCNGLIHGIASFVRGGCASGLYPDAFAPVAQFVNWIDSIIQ
Chain of neutrophil elastase (P08246 30-247 limits assumed): as above

Sequence: KFFKRLLKSVRRAVKKFRKK [Sn1a]
- Effect of pefabloc (serine protease inhibitor) on degradation in CF sputum, 4 h ([1]; then peptide 4 h at 37 °C): prevented only by the inhibitor pefabloc

Sequence: KFFKRLLKSVRRAVKKFRKKPRLIGLSTLL [Sn1]
- Effect of pefabloc (serine protease inhibitor) on degradation in CF sputum, 4 h ([1]; then peptide 4 h at 37 °C): prevented only by the inhibitor pefabloc

Sequence: KRFKKFFKKLKNSV [SnE1N]
- Cleavage by neutrophil elastase [2]: appeared to remain intact
- Effect of pefabloc (serine protease inhibitor) on degradation in CF sputum, 24 h ([1]; then peptide 24 h at 37 °C): prevented degradation
- Effect of EDTA (MMP inhibitor) on degradation in CF sputum, 24 h [1, 5]: prevented degradation

Sequence: KRFKKFFKKLKNSVKKRAKKFFKKPRVI [SnE1-F]
- Cleavage by neutrophil elastase [2]: gradual transition from one band of larger molecular weight to one or more bands of smaller molecular weight
- Effect of E64 (cysteine protease inhibitor) on degradation in CF sputum, 24 h ([1]; 0.1 mM E64 pre-incubated 30 min with sputum (100-fold in TBS), then peptide 24 h at 37 °C): did not prevent
- Effect of pefabloc (serine protease inhibitor) on degradation in CF sputum, 4 h ([1]; then peptide 4 h at 37 °C): prevented in the presence of pefabloc
- Effect of pefabloc (serine protease inhibitor) on degradation in CF sputum, 24 h ([1]; then peptide 24 h at 37 °C): prevented the degradation
- Effect of EDTA (MMP inhibitor) on degradation in CF sputum, 24 h [1, 5]: did not prevent
- Degradation in CF sputum within 4 h ([1]; CF sputum diluted 100-fold in 1X TBS, 37 °C, 0-4 h, peptide 500 μg/mL or parental molar equivalent (160 or 120 μM), Coomassie, visual): some degradation

Sequence: KRFKKFFKKLKNSVKKRAKKFFKKPRVIGVSIPF
- cleaved bond [3]: V-K and I-G

Sequence: KRFKKFFKKLKNSVKKRAKKFFKKPRVIGVSIPF [SnE1]
- Cleavage by neutrophil elastase [2]: gradual transition from one band of larger molecular weight to one or more bands of smaller molecular weight
- Neutrophil elastase cleavage sites (peptide cleaved after each site marked) (neutrophil elastase): KRFKKFFKKLKNSV│[…]│GVSIPF

Sequence: KRFKKFFKKVKKSVKKRLKKIFKKPMVIGVTIPF
- cleaved bond [3]: V-K and I-F

Sequence: KRFKKFFKKVKKSVKKRLKKIFKKPMVIGVTIPF [SnV1]
- Effect of pefabloc (serine protease inhibitor) on degradation in CF sputum, 4 h ([1]; then peptide 4 h at 37 °C): prevented only by the inhibitor pefabloc

Sequence: KRFKKFFKRLLKSV
- not cleaved [4]: did not exhibit obvious degradation when incubated with CF sputum after 4 h

Sequence: KRFKKFFKRLLKSV [Sn1bN]
- Cleavage by neutrophil elastase [2]: did not result in obvious cleavage

Sequence: KRFKKFFKRLLKSVRRAVKKFRKK
- cleaved bond [3]: V-R

Sequence: KRFKKFFKRLLKSVRRAVKKFRKK [Sn1b]
- Cleavage by neutrophil elastase [2]: rapidly cleaved
- Effect of EDTA (MMP inhibitor) on degradation in CF sputum, 4 h ([1]; 5 mM EDTA pre-incubated 30 min with sputum (100-fold in TBS), then peptide 4 h at 37 °C): inhibited
